Experiment in all cases: growth of human tumour cells (NCI), 48 h
In test [1] the test system is CCRF-CEM.
For test [2], the system named is COLO 205.
For test [3], the system named is EKVX.
For test [4], the system named is HCC 2998.
Test [5] relates to HCT-116.
Test [6] concerns HOP-92.
The subject of test [7] is MDA-N.
The test system of test [8] is NCI-H23.
The test system of test [9] is RXF 393.
The subject of test [10] is SF-268.
Test [11] has as its system SF-295.
Test [12] deals with SN12C.
For test [13], the system named is SNB-75.
The subject of test [14] is TK-10.
Test [15] deals with UACC-62.
Test [16] relates to UO-31.

From ChEMBL document CHEMBL1201862, “PubChem BioAssay data set” (2004) come the findings set out here.

“And” between values parts separate entries of the source, which are not always exact repeats. Identical values can stand only once.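 Protocol summary: plate cells (96-well), add compound at 5 concentrations, incubate 48 h, interpolate endpoints linearly. GI50 is the concentration that inhibits growth by half.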 The source made the active and inactive calls. Rule as the data show it: active = GI50 up to about 1.1 µM and inactive = higher. Some results are limits rather than exact numbers.

Consider `O=C(O)C[S+]([O-])c1ccc2c3c(cccc13)C(=O)c1ccccc1-2` (centres undefined), for which the GI50 in test [1] was > 100 µM (inactive); in test [2], > 100 µM (inactive); in [3], 55.1 µM (inactive); in test [4], > 100 µM (inactive); in test [5] it was > 100 µM (inactive); in [6] it was > 100 µM (inactive). The GI50 in [7], in test [8], in test [9], in [10], in test [11] and in [12] was > 100 µM (inactive) each time. In addition, the GI50 in test [13], in test [14], in test [15] and in [16] was > 100 µM (inactive) throughout.

In the case of `CCn1c(=O)c2nc(SC)sc2n(-c2ccccc2)c1=S`, the GI50 is 19.6 µM (inactive) in test [1]; > 10 µM (inactive) in test [2]; > 100 µM (inactive) in test [3]; > 100 µM (inactive) in [4]; 58.7 µM (inactive) in test [5]; 55.5 µM (inactive) in test [6]. Also, the GI50 is 47.2 µM (inactive) in test [7]; 46.8 µM (inactive) in test [8]; 67.3 µM (inactive) in test [9]; > 100 µM (inactive) in test [10]; > 100 µM (inactive) in test [11]; 86.9 µM (inactive) in [12]. For the same molecule, the GI50 in test [13] is 91.2 µM (inactive); in [14] it was > 100 µM (inactive); in test [15], 38 µM (inactive); in test [16], 16.6 µM (inactive).

In the case of `C=CCc1cccc2cc(C(=O)Nc3nc(C45CC6CC(CC(C6)C4)C5)cs3)c(=O)oc12`, the GI50 in [1] was 64.3 µM (inactive); in test [2] it was 21.4 µM (inactive); in test [3] it was 25.1 µM (inactive); in test [4] it was 33 µM (inactive); in test [5], > 10 µM (inactive); in [6] it was 16 µM (inactive). For the same molecule, the GI50 is 45 µM (inactive) in [7]; 18 µM (inactive) in test [8]; 6.08 µM (inactive) in test [9]; 10.7 µM (inactive) in test [10]; 16.3 µM (inactive) in test [11]; 45.2 µM (inactive) in test [12]. Besides, the GI50 in test [13] is 24.2 µM (inactive); in test [14] it was 30.8 µM (inactive); in test [16], 10.8 µM (inactive).

`C=CC(C)(C)N[C@@H](C(=O)N1CCC[C@H]1c1nc(-c2nc(C(=O)OCC=C(C)C)c(C)o2)c(C)o1)C(C)C`: the GI50 in test [1] was 11.7 µM (inactive); in test [2] it was 22.4 µM (inactive); in [3], 32.3 µM (inactive); in [4], 18.9 µM (inactive); in [5], 17.8 µM (inactive); in test [6], 17.5 µM (inactive). The GI50 is 18 µM (inactive) in test [7]; 21.8 µM (inactive) in test [8]; 30.7 µM (inactive) in [9]; 20.9 µM (inactive) in [10]; 20.1 µM (inactive) in [11]; 18.5 µM (inactive) in test [12]. The GI50 in [13] is 33.8 µM (inactive); in [14], 24.3 µM (inactive); in test [15], 18 µM (inactive); in test [16], 14.3 µM (inactive).

Consider `COc1ccc(C2C(C(=O)c3ccccc3)=C(O)C(O)(CC(=O)c3ccccc3)N2c2ccc(OC)cc2)cc1` (centres undefined), for which the GI50 is 3.52 µM (inactive) in test [1]; 17.6 µM (inactive) in test [2]; 24.6 µM (inactive) in test [3]; 11.1 µM (inactive) in test [4]; 9.29 µM (inactive) in test [5]; 4.2 µM (inactive) in test [6]. Also, the GI50 was 20.9 µM (inactive) in test [7]; 21.1 µM (inactive) in [8]; 9.38 µM (inactive) in test [9]; 33.7 µM (inactive) in [10]; 12.3 µM (inactive) in test [11]; 21.6 µM (inactive) in test [12]. The GI50 in test [13] is 34.1 µM (inactive); in test [14] it was 16.3 µM (inactive); in test [15], 22.8 µM (inactive); in test [16] it was 11.5 µM (inactive).

Regarding `COc1cc(/C=C2\N=C(c3ccccc3)N(c3cc4cc(Sc5ccccc5)ccc4[nH]3)C2=O)ccc1O`, the GI50 was 2.69 µM (inactive) in test [1]; 2.35 µM (inactive) in [2]; 22.1 µM (inactive) in test [3]; 5.82 µM (inactive) in [4]; 2.11 µM (inactive) in test [5]; 6.12 µM (inactive) in [6]. Also, the GI50 in test [7] is 1.07 µM (active); in test [8], 18.5 µM (inactive); in test [9], 5.02 µM (inactive); in [12], 7.87 µM (inactive); in test [13], 21.8 µM (inactive); in [15] it was 0.188 µM (active). In addition, in [16], the GI50 is 15.6 µM (inactive).

Regarding `CC(C)C1=C2CCC3(C)C(CCC4C5C6OCC5(CCC6(C)C)CCC43C)C2(C)CC1` (centres undefined), the GI50 in [1] was 12.3 µM (inactive); in [2] it was 16.7 µM (inactive); in test [3], 19.1 µM (inactive); in test [4], 18.8 µM (inactive); in test [5] it was 18.8 µM (inactive); in [6], 18.6 µM (inactive). Besides, the GI50 is 13.7 µM (inactive) in test [7]; 21.3 µM (inactive) in [8]; 20.6 µM (inactive) in [9]; 28.8 µM (inactive) in [10]; 19.7 µM (inactive) in test [11]; 15 µM (inactive) in test [12]. Also, the GI50 was 16.7 µM (inactive) in test [14], 17.7 µM (inactive) in test [15] and 18.1 µM (inactive) in test [16].

With `CC(C)C1OC(=O)/C=C/C=C/C=C/C=C/C=C/CC(O)CC(O)CC(O)CC(O)CC(O)CC(O)CC(O)CC(O)/C=C/C1C` (centres undefined), the GI50 in test [1], in [2], in test [3], in [4], in test [5] and in test [6] was > 100 µM (inactive) each time. Besides, the GI50 in [7] was > 100 µM (inactive); in test [8], > 100 µM (inactive); in [9] it was 73.8 µM (inactive); in [10], > 100 µM (inactive); in test [11], > 100 µM (inactive); in [12], > 100 µM (inactive). Further, the GI50 in [13], in [14] and in [16] was > 100 µM (inactive) in each case.

As to `CCCCCCCCCCCC(=O)N(CCCCCCCCCCC(=O)O)CC(O)C(O)C(OC1OC(CO)C(O)C(O)C1O)C(O)CO` (centres undefined), the GI50 in [1], in test [2], in test [3], in test [4], in [5] and in test [6] was > 100 µM (inactive) each time. Moreover, the GI50 in test [7], in test [8], in test [9], in test [10], in [11] and in test [12] was > 100 µM (inactive) throughout. Besides, the GI50 in test [13], in test [14], in [15] and in [16] was > 100 µM (inactive) in each case.

Take `O=S(=O)(O)c1ccc2c(/N=N/c3ccc(S(=O)(=O)O)c4ccccc34)c(O)c(S(=O)(=O)O)cc2c1`: the GI50 in [1], in test [2], in [3], in test [4], in test [5] and in test [6] was > 100 µM (inactive) each time. Also, the GI50 in test [7] is > 100 µM (inactive); in test [8], > 100 µM (inactive); in test [9], > 100 µM (inactive) and 63.5 µM (inactive); in [10], > 100 µM (inactive); in test [11] it was > 100 µM (inactive); in test [12] it was > 100 µM (inactive). For the same molecule, the GI50 in test [13], in test [14], in test [15] and in [16] was > 100 µM (inactive) each time.

For `COc1ccc(C2=C(OC(C)=O)c3cccn3-c3ccc(Cl)cc3S2)cc1`, the GI50 is 3.43 µM (inactive) in test [1]; 5.66 µM (inactive) in [2]; 6.67 µM (inactive) in test [3]; 5.43 µM (inactive) in [4]; 1.3 µM (inactive) in test [6]; 2.13 µM (inactive) in test [7]. The GI50 was 4.52 µM (inactive) in test [8]; 9.44 µM (inactive) in test [9]; 7.55 µM (inactive) in test [10]; 3.05 µM (inactive) in [11]; 3.74 µM (inactive) in test [12]; 3.44 µM (inactive) in test [13]. For the same molecule, the values for the GI50 in test [14] and in test [15] were > 10 µM (inactive) and 4.48 µM (inactive), respectively.

Regarding `CC(=O)OC(C)c1cc2c(s1)C(=O)c1scc(C(C)OC(C)=O)c1C2=O` (centres undefined), the GI50 in test [1] was 0.367 µM (active); in [2], 0.512 µM (active); in test [3], 0.847 µM (active); in test [4] it was 0.317 µM (active); in test [5] it was 0.285 µM (active); in [6], 1.71 µM (inactive). Besides, the GI50 in [7] was 0.0817 µM (active); in test [8], 0.157 µM (active); in test [9], 0.301 µM (active); in [10] it was 0.211 µM (active); in [11], 0.164 µM (active); in test [12], 0.288 µM (active). In addition, the GI50 in [13] was 0.185 µM (active); in test [14], 0.571 µM (active); in test [15], 0.212 µM (active); in test [16] it was 0.204 µM (active).
